Data reported in the NIST ThermoML archive (doi:10.1016/j.jct.2010.05.011).
Numbers after ± are expanded uncertainties.

Tests used:
[1] = 101.33 kPa, Liquid; for speed of sound: Sing-around technique in a fixed-path interferometer; for mass density: Vibrating tube method; for viscosity: Capillary tube (Ostwald / Ubbelohde) method
[2] = refractive index (Na D-line) (dimensionless); conditions: 101.33 kPa, Liquid, Standard Abbe refractometry

COS(=O)(=O)[O-].Cc1ccc[n+](C)c1 [1,3-dimethylpyridinium methyl sulfate]
Conditions | mass density, [1] [kg/m3] | refractive index, [2] | speed of sound, [1] [m/s] | viscosity, [1] [mPa·s]
293.15 K | 1305.87 ± 1.5 | 1.5147 ± 0.00051 | 1834.9 ± 4.5 | –
298.15 K | 1302.51 ± 1.5 | 1.5133 ± 0.00051 | 1822.2 ± 4.5 | 128.6 ± 8.1
303.15 K | 1299.14 ± 1.5 | 1.51184 ± 0.00051 | 1809.7 ± 4.5 | 97.1 ± 6.1
308.15 K | 1295.77 ± 1.5 | 1.51051 ± 0.00051 | 1797.5 ± 4.5 | 76.8 ± 4.8
313.15 K | 1292.42 ± 1.5 | 1.50911 ± 0.00051 | 1785.4 ± 4.5 | 61.2 ± 3.8
318.15 K | 1289.07 ± 1.5 | 1.5077 ± 0.00051 | 1773.5 ± 4.5 | 49.6 ± 3.1
323.15 K | 1285.74 ± 1.5 | 1.5062 ± 0.00051 | 1761.7 ± 4.5 | 40.86 ± 2.5
328.15 K | 1282.42 ± 1.5 | 1.50472 ± 0.00051 | 1750 ± 4.5 | 34.19 ± 2.1
333.15 K | 1279.11 ± 1.5 | 1.50331 ± 0.00051 | 1738.4 ± 4.5 | 28.8 ± 1.8
338.15 K | 1275.82 ± 1.4 | 1.50193 ± 0.00051 | 1726.9 ± 4.5 | 24.58 ± 1.5
343.15 K | 1272.55 ± 1.4 | 1.50046 ± 0.00051 | 1715.6 ± 4.5 | 21.15 ± 1.3

CCOS(=O)(=O)[O-].CCc1cccc[n+]1CC [1,2-diethylpyridinium ethylsulfate]
Conditions | mass density, [1] [kg/m3] | refractive index, [2] | speed of sound, [1] [m/s] | viscosity, [1] [mPa·s]
293.15 K | 1223.6 ± 1.3 | 1.5146 ± 0.00051 | 1759.3 ± 4.5 | –
298.15 K | 1220.2 ± 1.3 | 1.51328 ± 0.00051 | 1745.6 ± 4.5 | 324.7 ± 22
303.15 K | 1217 ± 1.3 | 1.51192 ± 0.00051 | 1731.3 ± 4.5 | 233.2 ± 16
308.15 K | 1213.9 ± 1.3 | 1.51057 ± 0.00051 | 1718.6 ± 4.5 | 175.8 ± 11
313.15 K | 1210.3 ± 1.3 | 1.5092 ± 0.00051 | 1705.7 ± 4.5 | 135.5 ± 8.6
318.15 K | 1206.8 ± 1.3 | 1.50788 ± 0.00051 | 1693 ± 4.5 | 104 ± 6.5
323.15 K | 1203.4 ± 1.3 | 1.50648 ± 0.00051 | 1680.5 ± 4.5 | 83.3 ± 5.2
328.15 K | 1200.1 ± 1.3 | 1.50513 ± 0.00051 | 1668.1 ± 4.5 | 67.2 ± 4.1
333.15 K | 1196.8 ± 1.3 | 1.50376 ± 0.00051 | 1656.2 ± 4.5 | 55 ± 3.4
338.15 K | 1193.6 ± 1.3 | 1.50239 ± 0.00051 | 1644.3 ± 4.5 | 45.6 ± 2.8
343.15 K | 1190.3 ± 1.2 | 1.5009 ± 0.00051 | 1632.7 ± 4.5 | 38.12 ± 2.3
